Laboratory results published in patent publication US9328122B2, “7-substituted Hanfangichin B derivative, and preparation method and use thereof” (HANGZHOU BENSHENG PHARMACEUTICAL CO., LTD., priority 2012, dated 2016).
In brackets after ≈: the same amount, converted by molar mass.

Tests used:
tumor = test: Antitumor activity compared with fangchinoline, overall statement; format: cell-based; settings: tumor type not specified
[1] = system: RPMI 8226 (multiple myeloma) cells; test: MTT cell growth inhibition, multiple myeloma cells; format: cell-based, human; settings: for IC50 / IC90: Homo sapiens, RPMI 8226, 72 h, MTT; for IC50: read-out: IC50; for IC90: read-out: IC90
Procedure: Myeloma cell lines: RPMI8226 (multiple myeloma), purchased from Fuxiang Bio-tech Co. Ltd., Shanghai, China.
6000 well-growing cells were obtained and inoculated into wells of a 96-well cell culture plate. The culture medium was a RPMI-1640 cell culture medium containing 10% fetal bovine serum. After adding the 7-substituted fangchinoline derivatives of different concentrations the next day and mixing uniformly, the plate was placed in a carbon dioxide cell incubator (5% CO2) at 37° C. and incubated for 72 hours. Then the viable cell concentration was determined by the MTT method.

[2] = system: Hep G2 (human liver cancer) cells; test: MTT cell growth inhibition, solid tumor cells; format: cell-based; settings: Homo sapiens, HepG2, Hep G2, 72 h, MTT; for IC50: read-out: IC50; for IC90: read-out: IC90
From the text: (§1) Hep-2 (laryngeal carcinoma), A549 (human lung cancer), CaES-17 (esophageal cancer cell), PC-3 (prostate cancer), CNE (nasopharyngeal carcinoma cell) and SK-OV-3 (ovarian cancer cell), all of which were purchased from China Center For Type Culture Collection; RKO (human colon adenocarcinoma cell), MGC-803 (human gastric cancer cell), MG-63 (osteosarcoma), and U87-MG (malignant glioma cell), all of which were purchased from Fuxiang Bio-tech Co. Ltd., Shanghai, China; PANC-1 (pancreatic cancer), Becap37 (human breast cancer cell), Hela (human cervical cancer cell) and Hep G2 (human liver cancer cell), all of which were donated by Cancer Research Institute of Zhejiang University, China.
(§2) 6000 well-growing human solid tumor cells were obtained and inoculated into wells of a 96-well cell culture plate. The culture medium was DMEM High Glucose cell culture medium containing 10% fetal bovine serum. The plate was placed in a carbon dioxide cell incubator (5% CO2) at 37° C. and incubated for 24 hours. After added with 7-substituted fangchinoline derivatives of different concentration and mixing uniformly, the plate was placed in a carbon dioxide cell incubator (5% CO2) at 37° C. and incubated for 72 hours. Then the viable cell concentration was determined by the MTT method.

[3] = system: Hela (human cervical cancer) cells; test: MTT cell growth inhibition, solid tumor cells; format: cell-based; settings: Homo sapiens, Hela, 72 h, MTT; for IC50: read-out: IC50; for IC90: read-out: IC90
From the text: as §1, §2

[4] = system: A549 (human lung cancer) cells; test: MTT cell growth inhibition, solid tumor cells; format: cell-based; settings: Homo sapiens, A549, 72 h, MTT; for IC50: read-out: IC50; for IC90: read-out: IC90
From the text: as §1, §2

[5] = system: MG-63 (osteosarcoma) cells; test: MTT cell growth inhibition, solid tumor cells; format: cell-based; settings: Homo sapiens, MG-63, 72 h, MTT; for IC50: read-out: IC50; for IC90: read-out: IC90
From the text: as §1, §2

[6] = system: Becap-37 (human breast cancer) cells; test: MTT cell growth inhibition, solid tumor cells; format: cell-based; settings: Homo sapiens, Becap-37, 72 h, MTT; for IC50: read-out: IC50; for IC90: read-out: IC90
From the text: as §1, §2

[7] = system: MGC-803 (human gastric cancer) cells; test: MTT cell growth inhibition, solid tumor cells; format: cell-based; settings: MGC-803, 72 h, MTT; for IC50: read-out: IC50; for IC90: read-out: IC90
From the text: as §1, §2

[8] = system: U87-MG (malignant glioma) cells; test: MTT cell growth inhibition, solid tumor cells; format: cell-based; settings: Homo sapiens, U-87 MG, U87-MG, 72 h, MTT; for IC50: read-out: IC50; for IC90: read-out: IC90
From the text: as §1, §2

[9] = system: Hep-2 (laryngeal carcinoma) cells; test: MTT cell growth inhibition, solid tumor cells; format: cell-based; settings: Homo sapiens, Hep-2, 72 h, MTT; for IC50: read-out: IC50; for IC90: read-out: IC90
From the text: as §1, §2

[10] = system: RKO (human colon adenocarcinoma) cells; test: MTT cell growth inhibition, solid tumor cells; format: cell-based; settings: Homo sapiens, RKO, 72 h, MTT; for IC50: read-out: IC50; for IC90: read-out: IC90
From the text: as §1, §2

[11] = system: PC-3 (prostate cancer) cells; test: MTT cell growth inhibition, solid tumor cells; format: cell-based, human; settings: Homo sapiens, PC-3, 72 h, MTT; for IC50: read-out: IC50; for IC90: read-out: IC90
From the text: as §1, §2

[12] = system: PANC-1 (pancreatic cancer) cells; test: MTT cell growth inhibition, solid tumor cells; format: cell-based, human; settings: Homo sapiens, PANC-1, 72 h, MTT; for IC50: read-out: IC50; for IC90: read-out: IC90
From the text: as §1, §2

[13] = system: SK-OV-3 (ovarian cancer) cells; test: MTT cell growth inhibition, solid tumor cells; format: cell-based, human; settings: Homo sapiens, SK-OV-3, 72 h, MTT; for IC50: read-out: IC50; for IC90: read-out: IC90
From the text: as §1, §2

[14] = system: CNE (nasopharyngeal carcinoma) cells; test: MTT cell growth inhibition, solid tumor cells; format: cell-based, human; settings: Homo sapiens, CNE, 72 h, MTT; for IC50: read-out: IC50; for IC90: read-out: IC90
From the text: as §1, §2

[15] = system: Jurkat (acute lymphoblastic leukemia) cells; test: MTT cell growth inhibition, leukemia cells; format: cell-based, human; settings: Homo sapiens, Jurkat, 72 h, MTT; for IC50: read-out: IC50; for IC90: read-out: IC90
From the text: (§3) Leukemia cell lines: leukemia cell lines: K562adr (drug-resistant, chronic myeloid leukemia, CML), NB4 (acute promyelocytic leukemia, AML), Kasumi-1 (acute myeloid leukemia M2 type, AML-M2), Jurkat (acute lymphoblastic leukemia, ALL), all of which were donated by Cancer Research Institute of Zhejiang University, China; and H9 (acute lymphoblastic leukemia, ALL), which was purchased from China Center for Type Culture Collection.
(§4) Reagents: The standard sample of fangchinoline (FAN) was purchased from Ci Yuan Biotechnology Co., Ltd., Shaanxi, China; and the 7-substituted fangchinoline derivatives according to the present invention.
(§5) 6000 well-growing leukemia cells were obtained and inoculated into wells of a 96-well cell culture plate. The culture medium was a RPMI-1640 cell culture medium containing 10% fetal bovine serum. After adding the 7-substituted fangchinoline derivatives of different concentrations the next day and mixing uniformly, the plate was placed in a carbon dioxide cell incubator (5% CO2) at 37° C. and incubating for 72 hours. Then the viable cell concentration was determined by the MTT method.

[16] = system: Kasumi-1 (acute myeloid leukemia M2 type) cells; test: MTT cell growth inhibition, leukemia cells; format: cell-based, human; settings: Homo sapiens, Kasumi-1, 72 h, MTT; for IC50: read-out: IC50; for IC90: read-out: IC90
From the text: as §3, §4, §5

[17] = system: H9 (acute lymphoblastic leukemia) cells; test: MTT cell growth inhibition, leukemia cells; format: cell-based, human; settings: Homo sapiens, H9, 72 h, MTT; for IC50: read-out: IC50; for IC90: read-out: IC90
From the text: as §3, §4, §5

Compound	antitumor activity compared with that of fangchinoline (tumor)	IC50 [1]	IC90 [1]	IC50 [2]	IC90 [2]	IC50 [3]	IC90 [3]	IC50 [4]	IC90 [4]	IC50 [5]	IC90 [5]	IC50 [6]	IC90 [6]	IC50 [7]	IC90 [7]	IC50 [8]	IC90 [8]	IC50 [9]	IC90 [9]	IC50 [10]	further results
COc1ccc2cc1Oc1ccc(cc1)C[C@H]1c3cc(c(OC)cc3CCN1C)Oc1c(OCC3CC3)c(OC)cc3c1[C@H](C2)N(C)CC3 [BS-FC-208]	significantly superior	0.13 mg/L (≈ 0.196 µM)	0.5 mg/L (≈ 0.754 µM)	1.94 mg/L (≈ 2.93 µM)	5.95 mg/L (≈ 8.98 µM)	1.74 mg/L (≈ 2.63 µM)	4 mg/L (≈ 6.03 µM)	2.51 mg/L (≈ 3.79 µM)	13.1 mg/L (≈ 19.7 µM)	1.6 mg/L (≈ 2.41 µM)	2.5 mg/L (≈ 3.77 µM)	2.35 mg/L (≈ 3.55 µM)	5.55 mg/L (≈ 8.37 µM)	1.49 mg/L (≈ 2.25 µM)	5.98 mg/L (≈ 9.02 µM)	1.99 mg/L (≈ 3 µM)	7.48 mg/L (≈ 11.3 µM)	3.27 mg/L (≈ 4.93 µM)	8.05 mg/L (≈ 12.1 µM)	1.64 mg/L (≈ 2.47 µM)	IC90 [10]: 4.64 mg/L (≈ 7 µM); IC50 [11]: 3.07 mg/L (≈ 4.63 µM); IC90 [11]: 5.91 mg/L (≈ 8.92 µM); IC50 [12]: 2.87 mg/L (≈ 4.33 µM); IC90 [12]: 8.31 mg/L (≈ 12.5 µM); IC50 [13]: 3.77 mg/L (≈ 5.69 µM); IC90 [13]: 7.85 mg/L (≈ 11.8 µM); IC50 [14]: 2.7 mg/L (≈ 4.07 µM); IC90 [14]: 6 mg/L (≈ 9.05 µM); IC50 [15]: 0.75 mg/L (≈ 1.13 µM); IC90 [15]: 1.88 mg/L (≈ 2.84 µM); IC50 [16]: 0.97 mg/L (≈ 1.46 µM); IC90 [16]: 4.01 mg/L (≈ 6.05 µM); IC50 [17]: 2.01 mg/L (≈ 3.03 µM); IC90 [17]: 4.28 mg/L (≈ 6.46 µM)
COc1ccc2cc1Oc1ccc(cc1)C[C@H]1c3cc(c(OC)cc3CCN1C)Oc1c(OCC(O)CN3CCSCC3)c(OC)cc3c1[C@H](C2)N(C)CC3 (stereo partly shown) [BS-FC-417]	significantly superior	0.02 mg/L (≈ 0.026 µM)	0.5 mg/L (≈ 0.651 µM)	1.8 mg/L (≈ 2.34 µM)	5.79 mg/L (≈ 7.54 µM)	1.73 mg/L (≈ 2.25 µM)	4.47 mg/L (≈ 5.82 µM)	3.77 mg/L (≈ 4.91 µM)	11.7 mg/L (≈ 15.2 µM)	2 mg/L (≈ 2.6 µM)	3.6 mg/L (≈ 4.69 µM)	2.42 mg/L (≈ 3.15 µM)	6.16 mg/L (≈ 8.02 µM)	1.49 mg/L (≈ 1.94 µM)	12.9 mg/L (≈ 16.8 µM)	1.49 mg/L (≈ 1.94 µM)	4.25 mg/L (≈ 5.53 µM)	2.36 mg/L (≈ 3.07 µM)	6.03 mg/L (≈ 7.85 µM)	1.09 mg/L (≈ 1.42 µM)	anti-RPMI8226 activity increase over fangchinoline ([1]; relative to fangchinoline, Table 2): 2 fold; IC90 [10]: 2.27 mg/L (≈ 2.96 µM); IC50 [11]: 3.68 mg/L (≈ 4.79 µM); IC90 [11]: 9.36 mg/L (≈ 12.2 µM); IC50 [12]: 5.55 mg/L (≈ 7.23 µM); IC90 [12]: 9 mg/L (≈ 11.7 µM); IC50 [13]: 4.6 mg/L (≈ 5.99 µM); IC90 [13]: 12.9 mg/L (≈ 16.8 µM); IC50 [14]: 1.66 mg/L (≈ 2.16 µM); IC90 [14]: 5.24 mg/L (≈ 6.82 µM); IC50 [15]: 1.24 mg/L (≈ 1.61 µM); IC90 [15]: 5.47 mg/L (≈ 7.12 µM); IC50 [16]: 1.45 mg/L (≈ 1.89 µM); IC90 [16]: 3.63 mg/L (≈ 4.73 µM); IC50 [17]: 1.3 mg/L (≈ 1.69 µM); IC90 [17]: 3.6 mg/L (≈ 4.69 µM)
COc1ccc2cc1Oc1ccc(cc1)C[C@H]1c3cc(c(OC)cc3CCN1C)Oc1c(OC(=O)c3c(F)cccc3Cl)c(OC)cc3c1[C@H](C2)N(C)CC3 [BS-FC-315]	significantly superior	0.13 mg/L (≈ 0.17 µM)	0.48 mg/L (≈ 0.627 µM)	1.39 mg/L (≈ 1.82 µM)	3.74 mg/L (≈ 4.89 µM)	1.5 mg/L (≈ 1.96 µM)	3.35 mg/L (≈ 4.38 µM)	1.85 mg/L (≈ 2.42 µM)	3.48 mg/L (≈ 4.55 µM)	2.4 mg/L (≈ 3.14 µM)	3.9 mg/L (≈ 5.1 µM)	2.1 mg/L (≈ 2.74 µM)	3.79 mg/L (≈ 4.95 µM)	1.21 mg/L (≈ 1.58 µM)	3.02 mg/L (≈ 3.95 µM)	1.34 mg/L (≈ 1.75 µM)	3.24 mg/L (≈ 4.23 µM)	3.66 mg/L (≈ 4.78 µM)	6.4 mg/L (≈ 8.36 µM)	1.15 mg/L (≈ 1.5 µM)	IC90 [10]: 2.23 mg/L (≈ 2.91 µM); IC50 [11]: 2.95 mg/L (≈ 3.85 µM); IC90 [11]: 5.02 mg/L (≈ 6.56 µM); IC50 [12]: 1.61 mg/L (≈ 2.1 µM); IC90 [12]: 5.52 mg/L (≈ 7.21 µM); IC50 [13]: 2.99 mg/L (≈ 3.91 µM); IC90 [13]: 6.81 mg/L (≈ 8.9 µM); IC50 [14]: 3.3 mg/L (≈ 4.31 µM); IC90 [14]: 6.6 mg/L (≈ 8.62 µM); IC50 [15]: 0.59 mg/L (≈ 0.771 µM); IC90 [15]: 1.24 mg/L (≈ 1.62 µM); IC50 [16]: 0.85 mg/L (≈ 1.11 µM); IC90 [16]: 3.04 mg/L (≈ 3.97 µM); IC50 [17]: 2 mg/L (≈ 2.61 µM); IC90 [17]: 3.77 mg/L (≈ 4.93 µM)
